# Target: T1, Miro1 (Homo sapiens, UniProt Q8IXI2)
# T1 construct: We applied compound 3 to fibroblasts from one sporadic PD patient (PD-2); endogenous in cells; host or cells: human skin fibroblasts (PD-2, Healthy-1 and further PD/control lines)
# Test: Ubiquitination of immunoprecipitated Miro1 after CCCP 1 hr
# Type: cell-based
# Settings: PD-2 fibroblasts, with or without Miro1 Reducer
# Procedure: FIG. 8. Related to FIG. 2-4. Miro1 Reducer in Human Cell and Fly Models. (A) Fibroblasts from Healthy-1 and PD-2 were treated, lysed, and blotted as indicated. Band intensities are normalized to those of GAPDH from the same blots and compared to “Healthy-1, no treatment”. n=4 independent experiments. (B) Fibroblasts from PD-2 were treated and immunostained as indicated. The intensity was quantified for each cell across 264-320 cells from 3 independent experiments, compared to “no treatment”. (C) Fibroblasts were treated, immunoprecipitated (IPed) with anti-Miro1, and blotted as indicated. Similar results were observed twice. (D) Similar as in (C), fibroblasts were treated as indicated, and IPed with anti-Miro1. The GTPase activity of the IPed Miro1 protein was measured as described in Method. […] The MitoSox intensity was quantified for each cell across 106-161 cells from 3 coverslips. […] The TMRM intensity was measured for each cell across 48-60 cells from 3 independent experiments, and expressed as a fraction of the mean of “Healthy-1, no treatment”. […] The movement (the intensity of non-yellow) was quantified for each cell as described in (Tsai et al., 2014) across 22-31 cells from 3 transfections. […] (1) Left: The percentage of TH-positive iPSC-derived neurons out of total cells (Dapi-positive) is calculated after immunocytochemistry under 20× as described in FIG. 3. […]
# T1 sequence (Q8IXI2 whole entry): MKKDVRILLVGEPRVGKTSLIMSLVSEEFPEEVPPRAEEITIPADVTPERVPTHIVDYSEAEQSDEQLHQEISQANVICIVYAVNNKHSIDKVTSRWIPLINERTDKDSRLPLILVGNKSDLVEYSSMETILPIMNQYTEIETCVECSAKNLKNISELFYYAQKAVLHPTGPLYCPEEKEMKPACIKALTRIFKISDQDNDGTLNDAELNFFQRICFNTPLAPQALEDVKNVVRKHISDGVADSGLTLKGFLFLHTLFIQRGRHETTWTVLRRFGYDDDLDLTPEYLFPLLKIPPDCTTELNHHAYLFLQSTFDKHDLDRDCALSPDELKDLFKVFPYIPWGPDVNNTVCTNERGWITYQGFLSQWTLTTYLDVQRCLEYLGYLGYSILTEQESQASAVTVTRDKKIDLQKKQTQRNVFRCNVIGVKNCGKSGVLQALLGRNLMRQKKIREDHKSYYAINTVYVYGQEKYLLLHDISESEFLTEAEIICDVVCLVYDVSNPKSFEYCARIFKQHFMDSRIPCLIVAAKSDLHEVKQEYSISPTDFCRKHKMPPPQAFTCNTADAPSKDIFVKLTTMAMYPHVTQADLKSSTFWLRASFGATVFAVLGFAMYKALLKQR
smiles,measurement,value
O=C(Nc1ccc(Nc2cc(-n3ccnc3)ncn2)cc1)Nc1cccc(F)c1 [Miro1 Reducer],depolarization-elicited increase of ubiquitination of IPed Miro1,did not occur
